Data published in patent publication US6335398B1, “Super absorbent polymer composition” (priority 1994, dated 2002).

Legend:
[1] = pKCu, stability constant of the Cu2+ chelate by Cu ion electrode method; format: physicochemical
Description: The pKCu was obtained by the following procedures. A Cu ion electrode method was used (Orion pH/ion analyzer; Cu ion electrode). A 0.1M triethanolamine-HCl (pH 8) buffer solution was used.
First of all, standard copper ion buffer solutions [400, 320, 240, 160 or 80 ppm (reduced to Cu^2+)] were prepared using CuCl2.2H2O, and a calibration curve was prepared using a copper ion electrode.
Then, a sample weighing 0.1 g was dissolved in 100 ml of a buffer solution in a measuring flask. To the sample solution was added dropwise a 0.05M CuCl2.2H2O buffer solution (pH 8) from a burette in 0.6 ml portions, and the potential of the Cu ion electrode was measured. The titration was conducted until the potential exceeded the level corresponding to 400 ppm (reduced to Cu^2+). Blank measurements were also carried out. A free Cu ion concentration was calculated from the potential, and the calculated value was corrected for the change in amount of the liquid of the measurement system due to the titration. Assuming that addition of an equimolar amount of Cu to a sample produces a 1:1 (by mole) complex, pKCu can be obtained from formula 1:
Stability Constant KML=[ML]/([M][L])
[ML]: Concentration of metal/chelating agent complex
[M]: Concentration of free metal ion
[L]: Concentration of free chelating agent

[2] = Solubility of copper salt of chelating compound in physiological saline; details: stirred 30 minutes
[3] = log stability constant with Cu2+, 25° C., 0.1M triethanolamine-HCl pH 8

| Compound | pKCu (25° C.) [1, 3] | Solubility of Cu Salt (25° C.) [2] | pKCu (25° C.) ([1]; pH 8) |
| --- | --- | --- | --- |
| Monooleyl Phosphate | 3.3 | – | – |
| O=P(O)(O)OP(=O)(O)OP(=O)(O)O [Sodium Tripolyphosphate, reference compound] | 6.8 | 1 wt % | – |
| O=C([O-])CC(O)(CC(=O)[O-])C(=O)[O-].[Na+].[Na+].[Na+] [Trisodium Citrate, reference compound] | 5.2 | – | – |
| CC(C)c1cccc(O)c(=O)c1 [β-Thujaplicin, β-thujaplicin] | 7.9 | <0.0001 wt % | – |
| CC(C)c1ccc(O)c(=O)cc1 [γ-Thujaplicin, γ-thujaplicin] | 7.9 | – | – |
| O=C(O)CN(CCN(CC(=O)O)CC(=O)O)CC(=O)O [EDTA, ethylenediaminetetraacetic acid, reference compound] | – | – | 18.79 |
| Monooleyl Citrate | 6.4 | – | – |
